Source: patent publication US11897898B2, “Pyridine macrocycle compounds as ASK1 inhibiting agents” (BIOGEN MA INC., priority 2018, dated 2024)

Assays:
[1] = molecular target: T1, ASK1 T838 auto phosphorylation (Homo sapiens, UniProt Q99683); assay: ASK1 (AUTO PHOS T838) assay in HEK-293T cells, MSD format; format: cell-based; conditions: HEK-293T cells transfected with ASK1-V5, 1 hr compound incubation
T1 construct: ASK1-V5 tagged full length plasmid; expressed in transfected cells; host or cells: HEK-293T
T1 sequence (Q99683 1-1374): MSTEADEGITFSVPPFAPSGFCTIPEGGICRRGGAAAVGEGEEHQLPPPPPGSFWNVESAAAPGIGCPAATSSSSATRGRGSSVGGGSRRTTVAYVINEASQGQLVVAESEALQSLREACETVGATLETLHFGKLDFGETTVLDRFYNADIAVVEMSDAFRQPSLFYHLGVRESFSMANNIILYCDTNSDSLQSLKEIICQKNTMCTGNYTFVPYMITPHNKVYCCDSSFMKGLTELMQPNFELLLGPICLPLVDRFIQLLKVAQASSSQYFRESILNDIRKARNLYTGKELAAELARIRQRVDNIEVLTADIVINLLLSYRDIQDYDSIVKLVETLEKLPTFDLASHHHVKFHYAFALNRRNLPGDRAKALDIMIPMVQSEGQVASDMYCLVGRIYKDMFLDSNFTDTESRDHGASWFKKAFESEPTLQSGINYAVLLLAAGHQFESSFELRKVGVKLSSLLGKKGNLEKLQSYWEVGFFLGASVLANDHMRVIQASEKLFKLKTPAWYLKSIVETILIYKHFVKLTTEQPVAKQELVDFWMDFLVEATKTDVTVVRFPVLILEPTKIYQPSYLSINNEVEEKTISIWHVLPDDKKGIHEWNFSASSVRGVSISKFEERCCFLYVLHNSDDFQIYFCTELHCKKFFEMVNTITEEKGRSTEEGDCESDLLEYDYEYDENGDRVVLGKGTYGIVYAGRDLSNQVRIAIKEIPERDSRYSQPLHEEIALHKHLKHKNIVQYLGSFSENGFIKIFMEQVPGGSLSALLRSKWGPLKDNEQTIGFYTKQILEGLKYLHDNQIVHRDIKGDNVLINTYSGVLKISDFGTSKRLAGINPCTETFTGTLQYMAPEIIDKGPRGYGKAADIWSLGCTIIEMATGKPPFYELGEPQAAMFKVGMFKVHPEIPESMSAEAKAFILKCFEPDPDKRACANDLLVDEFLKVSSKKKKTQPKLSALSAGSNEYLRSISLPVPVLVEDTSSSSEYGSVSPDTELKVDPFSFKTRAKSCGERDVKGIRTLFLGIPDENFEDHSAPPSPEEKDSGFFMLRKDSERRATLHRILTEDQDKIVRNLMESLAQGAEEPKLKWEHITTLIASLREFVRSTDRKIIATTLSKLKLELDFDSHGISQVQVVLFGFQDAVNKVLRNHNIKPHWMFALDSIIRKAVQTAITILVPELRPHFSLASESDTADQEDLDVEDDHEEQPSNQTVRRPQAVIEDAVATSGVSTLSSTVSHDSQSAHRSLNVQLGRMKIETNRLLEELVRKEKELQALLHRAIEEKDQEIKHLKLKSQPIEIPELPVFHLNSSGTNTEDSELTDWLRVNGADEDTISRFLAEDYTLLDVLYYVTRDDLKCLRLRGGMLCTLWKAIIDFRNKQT
Method: ASK1 T838 auto phosphorylation was measured in HEK-293T cells using MSD assay format. HEK 293T cells were seeded in 15 cm plates at a density of 18 million cells and 20 mL DMEM with 10% FBS, Pen/Strep media. The plates were incubated at 37° C. overnight. Media on plates was changed to OPTI-MEM, serum free media and cells were transfected with 9 μg of ASK1-V5 tagged full length plasmid using Lipofectamine 2000 (Invitrogen) and the plates were incubated at 37° C. overnight. Cells were trypsinized, counted on Nexcellometer and plated into 96 well tissue culture plates with 100,000 cells/well and 200 μL media. Cells were incubated for 4 hr at 37° C. then ASK1 compounds were added using a HP 300e. Compounds were tested at 20 μM with 3 fold, 10 point dilution points then incubated for 1 hr at 37° C. A lysis buffer (Cell Signaling) was prepared with protease and phosphatase inhibitor and maintained at 4° C. until use. Media from cells was discarded and 120 μL of cold lysis buffer was added to the cells, the plate was shaken 4° C. for 1 hr. Lysate was mixed using Apricot liquid handler; aspirating up and down 16 times at high speed using 50 μL volume. 50 μL of cell lysates were transferred to a pre-coated MSD plates containing mouse anti-V5 antibody (1:500 dilution) and washed 3× with MSD wash buffer (TBST) and blocked with a 3% BSA solution. Plates were then incubated on a plate shaker overnight at 4° C. Plates were washed 3× with MSD wash buffer and 50 μL of rabbit anti-pASK1 T838 antibody was added to the wells and incubated for 2 hr at room temperature on a plate shaker. Plates were then washed and 50 μL of goat anti-rabbit sulfa-tag (1:500 dilution) was added to wells, and incubated for 1 hr at room temperature on a plate shaker. Plates were washed 3× and 150 μL of 2×MSD Read buffer was added to wells. Plates were immediately read on a MSD Instrument Reader where chemoluminecense signal was measured. Data was analyzed using Graph Pad or Genedata, the data was normalized and plotted, % activity versus log of compound concentration. The IC50 values were obtained from a 4 parameter fit.

[2] = molecular target: T2, ASK1/MAP3K5 (Homo sapiens, UniProt Q99683); assay: ASK1 enzyme assay (ASK1/MAP3K5 assay by Reaction Biology Corp., 33P-ATP filter-binding); format: biochemical; conditions: 20 μM myelin basic protein and 10 μM ATP
T2 construct: purchased Reaction Biology Corp. (Malvern, Pa.)
T2 sequence (Q99683 1-1374): T1 sequence (Q99683 1-1374)
Method: The protein kinase inhibitory activity of the compounds described herein were tested using the ASK1/MAP3K5 assay by Reaction Biology Corp. (Malvern, Pa.). The assay procedure follows (and is also available on the Reaction Biology Corp. website). • Base Reaction Buffer: 20 mM Hepes (pH 7.5), 10 mM MgCl2, 1 mM EGTA, • 0.02% Brij35, 0.02 mg/mL BSA, 0.1 mM Na3VO4, 2 mM DTT, 1% DMSO; • Substrate: 20 μM of myelin basic protein (MBP) and 10 μM ATP; • Protein kinase: ASK1/MAP3K5. • Reaction Procedure: • 1. Prepare indicated substrate in freshly prepared Base Reaction Buffer. • 2. Deliver any required cofactors to the substrate solution. • 3. Deliver indicated kinase into the substrate solution and gently mix. • 4. Deliver compounds in DMSO into the kinase reaction mixture by Acoustic; technology (Echo550; nanoliter range), incubate for 20 minutes at room temperature. • 5. Deliver ^33P-ATP (specific activity 10 μCi/μL) into the reaction mixture to initiate the reaction. • 6. Incubate kinase reaction for 2 hours at room temperature. • 7. Reactions are spotted onto P81 ion exchange paper. • 8. Detect kinase activity by filter-binding method.

SMILES | IC50 ([1]; class symbols) [nM] | IC50 ([2]; class symbols) [nM] | IC50 [2] [nM] | IC50 [1] [nM]
C[C@@H]1CCCOc2ncc(N3CCOCC3)cc2C(=O)Nc2cccc(n2)-c2nncn21 [Compound 6, (R)-10-Methyl-5^5-morpholino-1^4H-6-oxa-3-aza-2(2,6),5(3,2)-dipyridina-1(3,4)-triazolacyclodecaphan-4-one] | 1000 to 10000 | – | – | –
C[C@@H]1CN(c2cnc3c(c2)C(=O)Nc2cccc(n2)-c2nncn2[C@@H](C)CCCO3)CCN1C (single isomer, unassigned) [Compound 12] | ≤ 100 | ≤ 100 | – | –
C[C@H]1CCCOc2ncc(-c3ccnnc3)cc2C(=O)Nc2cccc(n2)-c2nncn21 [Compound 23, (S)-10-Methyl-5^5-(pyridazin-4-yl)-1^4H-6-oxa-3-aza-2(2,6),5(3,2)-dipyridina-1(3,4)-triazolacyclodecaphan-4-one] | ≤ 100 | ≤ 100 | – | –
C[C@H]1CCCOc2ncc(C3=CCN(C)CC3)cc2C(=O)Nc2cccc(n2)-c2nncn21 [Compound 15, (S)-10-Methyl-5^5-(1-methyl-1,2,3,6-tetrahydropyridin-4-yl)-1^4H-6-oxa-3-aza-2(2,6),5(3,2)-dipyridina-1(3,4)-triazolacyclodecaphan-4-one] | ≤ 100 | ≤ 100 | – | –
C[C@H]1CCCOc2ncc(-c3cnccn3)cc2C(=O)Nc2cccc(n2)-c2nncn21 [Compound 22, (S)-10-Methyl-5^5-(pyrazin-2-yl)-1^4H-6-oxa-3-aza-2(2,6),5(3,2)-dipyridina-1(3,4)-triazolacyclodecaphan-4-one] | ≤ 100 | ≤ 100 | – | –
C[C@H]1CN(c2cnc3c(c2)C(=O)Nc2cccc(n2)-c2nncn2[C@@H](C)CCCO3)CCN1C (single isomer, unassigned) [Compound 13] | 100 to 1000 | ≤ 100 | – | –
C[C@H]1CCCOc2ncc(C3CCN(C)CC3)cc2C(=O)Nc2cccc(n2)-c2nncn21 [Compound 16, (S)-10-Methyl-5^5-(1-methylpiperidin-4-yl)-1^4H-6-oxa-3-aza-2(2,6),5(3,2)-dipyridina-1(3,4)-triazolacyclodecaphan-4-one] | ≤ 100 | – | – | –
C[C@H]1CCCOc2ncc(-c3cnn(C)c3)cc2C(=O)Nc2cccc(n2)-c2nncn21 [Compound 26, (S)-10-Methyl-5^5-(1-methyl-1H-pyrazol-4-yl)-1^4H-6-oxa-3-aza-2(2,6),5(3,2)-dipyridina-1(3,4)-triazolacyclodecaphan-4-one] | ≤ 100 | – | – | –
C[C@@H]1CCCOc2ncc(-c3ccncc3)cc2C(=O)Nc2cccc(n2)-c2nncn21 [Compound 18, (R)-10-Methyl-5^5-(pyridin-4-yl)-1^4H-6-oxa-3-aza-2(2,6),5(3,2)-dipyridina-1(3,4)-triazolacyclodecaphan-4-one] | 1000 to 10000 | – | – | –
C[C@H]1CCCOc2ncc(-c3cncnc3)cc2C(=O)Nc2cccc(n2)-c2nncn21 [Compound 21, (S)-10-Methyl-5^5-(pyrimidin-5-yl)-1^4H-6-oxa-3-aza-2(2,6),5(3,2)-dipyridina-1(3,4)-triazolacyclodecaphan-4-one] | – | ≤ 100 | – | –

Continued, values first:

IC50 ([1]; class symbols) [nM] | IC50 ([2]; class symbols) [nM] | IC50 [2] [nM] | IC50 [1] [nM] | SMILES
100 to 1000 | – | – | – | C#Cc1cnc2c(c1)C(=O)Nc1cccc(n1)-c1nncn1[C@@H](C)CCCO2 [Compound 34, (S)-5^5-Ethynyl-10-methyl-1^4H-6-oxa-3-aza-2(2,6),5(3,2)-dipyridina-1(3,4)-triazolacyclodecaphan-4-one]
100 to 1000 | – | – | – | C[C@H]1CCCOc2ncc(C3CC3)cc2C(=O)Nc2cccc(n2)-c2nncn21 [Compound 36, (S)-5^5-Cyclopropyl-10-methyl-1^4H-6-oxa-3-aza-2(2,6),5(3,2)-dipyridina-1(3,4)-triazolacyclodecaphan-4-one]
≤ 100 | ≤ 100 | – | – | C[C@H]1CCCOc2ncc(OCCN(C)C)cc2C(=O)Nc2cccc(n2)-c2nncn21 [Compound 44, (S)-5^5-(2-(Dimethylamino)ethoxy)-10-methyl-1^4H-6-oxa-3-aza-2(2,6),5(3,2)-dipyridina-1(3,4)-triazolacyclodecaphan-4-one]
100 to 1000 | – | – | – | C[C@H]1CCCOc2ncc(S(C)(=O)=O)cc2C(=O)Nc2cccc(n2)-c2nncn21 [Compound 43, (S)-10-Methyl-5^5-(methylsulfonyl)-1^4H-6-oxa-3-aza-2(2,6),5(3,2)-dipyridina-1(3,4)-triazolacyclodecaphan-4-one]
100 to 1000 | – | – | – | C[C@H]1CCCOc2ncc(-n3ccc(C(F)(F)F)n3)cc2C(=O)Nc2cccc(n2)-c2nncn21 [Compound 29, (S)-10-Methyl-5^5-(3-(trifluoromethyl)-1H-pyrazol-1-yl)-1^4H-6-oxa-3-aza-2(2,6),5(3,2)-dipyridina-1(3,4)-triazolacyclodecaphan-4-one]
– | – | ≥ 10000 | ≥ 10000 | C[C@@H]1CCCOc2ncc(C(F)(F)F)cc2C(=O)Nc2cccc(n2)-c2nncn21 (single isomer, unassigned) [Compound 42]
≤ 100 | ≤ 100 | – | – | Cc1cn(-c2cnc3c(c2)C(=O)Nc2cccc(n2)-c2nncn2[C@@H](C)CCCO3)cn1 (single isomer, unassigned) [Compound 30]
100 to 1000 | – | – | – | C[C@H]1CCCOc2ncc(C#CC3CC3)cc2C(=O)Nc2cccc(n2)-c2nncn21 [Compound 35, (S)-5^5-(Cyclopropylethynyl)-10-methyl-1^4H-6-oxa-3-aza-2(2,6),5(3,2)-dipyridina-1(3,4)-triazolacyclodecaphan-4-one]
100 to 1000 | – | – | – | Cc1cnn(-c2cnc3c(c2)C(=O)Nc2cccc(n2)-c2nncn2[C@@H](C)CCCO3)c1 [Compound 27, (S)-10-Methyl-5^5-(4-methyl-1H-pyrazol-1-yl)-1^4H-6-oxa-3-aza-2(2,6),5(3,2)-dipyridina-1(3,4)-triazolacyclodecaphan-4-one]
